Data as given in patent US20220031871A1, “ANTIBODIES FOR CHELATED RADIONUCLIDES AND CLEARING AGENTS” (Hoffmann-La Roche Inc., priority 2018, published 2022).
Marks after values point to notes of the source that are not given here.

What was measured:
Format in all cases: in vivo, SCID mice
BxPC3 tumors [1] = assay: Protocol 95: TCMC saturation, CA-to-antibody ratio, ^212Pb activity; settings: no CA, 24 h; for tumor accumulation: ±SD, n=3
Excerpt: In this study, nine different clearing agents based on dextran-500 were compared in terms of inhibition of ^212Pb-DOTAM association to tumors. More specifically, the experiment assessed the impact on tumor-associated radioactivity from i) TCMC saturation, ii) clearing agent-to-antibody ratio, and iii) production/purification method. In addition, the tumor uptake was compared after injection of 10 or 30 μCi of ^212Pb-DOTAM, without pretargeting or CA, to assess whether radioactivity saturation of the tumor was achieved already at the lower dose.
PRIT-0165 (100 μg per 100 μL) was administered i.v., followed three days later by dextran-500-based clearing reagents (10-170 μg per 100 μL) with varying TCMC substitution (10-100%). Groups J and K received PBS instead of clearing agent. Two hours later, mice were injected i.v. with 100 μL of the respective ^212Pb-DOTAM solutions (10 or 30 μCi).
Mice were sacrificed and necropsied 24 hours after injection of ^212Pb-DOTAM. Blood, bladder, spleen, kidneys, liver, lung, muscle, tail, and tumors were collected, weighed and measured for radioactivity content, and the % ID/g subsequently calculated.

LS174T tumors = assay: Protocol 93b: efficacy and biodistribution of CEA-PRIT
Description: (§1) The bispecific antibodies were compared side-by-side in single- and double-cycle treatment regimens.
(§2) Groups A-G represent the treated mice that were followed up for assessment of efficacy, whereas groups H-L comprise mice that were sacrificed for biodistribution purposes 24 h after their last ^212Pb-DOTAM injection.
(§3) Solid xenografts were established by subcutaneous injection of cells in RPMI (BxPC3) or DMEM (LS174T) media mixed 1:1 with Corning® Matrigel® basement membrane matrix (growth factor reduced; cat No. 354230).
For protocol 93b, mice (age 9 weeks) were injected s.c. into the right flank with 1×10^6 LS174T cells (passage 26) in 100 μl DMEM/Matrigel. Three days after tumor cell injection, mice were sorted into experimental groups with an average tumor volume of 150 mm^3.
(§4) To minimize re-ingestion of radioactive urine/feces after treatment cycle 1, cages were changed 4 hours after ^212Pb-DOTAM administration, and then again at 24 h p.i. For cycle 2, mice were placed in cages with grilled floors for 4 hours after ^212Pb-DOTAM administration, before being transferred to new cages with standard bedding. All cages were then changed at 24 h p.i., as after cycle 1. The tumor development in the mice was followed through repeated calipering three times a week. If needed, additional calipering was performed in the gaps between scheduled measurements. The body weight of the animals was measured repeatedly in the same fashion. Mice whose tumor volume reached 3000 mm^3 were immediately euthanized. Other factors taken into account for euthanasia for ethical reasons were body weight loss, tumor status (e.g. ulceration) and general appearance of the animal. Wet food was provided to all animals starting from five days after the radioactive injection if mandated by an acute loss of body weight (collective or individual) due to radiation-induced toxicity, until all individuals had recovered sufficiently.
(§5) The following organs and tissues were harvested from groups A-G at the time of euthanasia: bladder, ovaries, liver, spleen, kidneys, femur (including bone marrow), colon, jejunum, stomach, and tumor. Unexpected or abnormal conditions were noted and photographed. Tissues were immediately put in 10% neutral buffered formalin (4° C.) and then transferred to PBS (4° C.) after 5 days. The formalin-fixed samples were then shipped to Roche Pharma Research and Early Development, Roche Innovation Center Basel, for further processing and analysis.
(§6) Mice in groups H, J, and L were sacrificed and necropsied 24 hours after their first and only injection of ^212Pb-DOTAM; groups I and K were sacrificed and necropsied 24 hours after their second ^212Pb-DOTAM injection. The following organs and tissues were harvested: blood, bladder, small intestine, colon, spleen, pancreas, kidneys, liver, lung, heart, femoral bone, muscle, tail, and tumor. Collected samples were weighed and measured for radioactivity, and the percent injected dose per gram of tissue (% ID/g) subsequently calculated, including corrections for decay and background.

BxPC3 tumors [2] = assay: Protocol 93a: efficacy and biodistribution of CEA-PRIT
Description: as §1, §2, §3
For protocol 93a, mice (age 7 weeks) were injected s.c. into the right flank with 5×10^6 BxPC3 cells (passage 33) in 100 μl RPMI/Matrigel. Twelve days after tumor cell injection, mice were sorted into experimental groups with an average tumor volume of 235 mm^3.
as §4, §5, §6

[3] = labelled group 30 + 30 μCi 212Pb-DOTAM, multiple test level = 0.00238

NC(=O)CN1CCN(CC(N)=O)CCN(CC(N)=O)CCN(CC(N)=O)CC1.[212Pb+2] [^212Pb-DOTAM]
tumor-to-blood ratio (BxPC3 tumors [1]; 10 μCi ^212Pb-DOTAM): 2.26±0.25 | tumor accumulation (BxPC3 tumors [1]; 10 μCi ^212Pb-DOTAM): 72.38±10.83 % ID/g | tumor-to-blood ratio (BxPC3 tumors [1]; 30 μCi ^212Pb-DOTAM): 3.20±0.20 | tumor accumulation (BxPC3 tumors [1]; 30 μCi ^212Pb-DOTAM): 107.74±14.71 % ID/g | TGI (LS174T tumors; day 22, 30+30 μCi, compared with PBS): 64.7% | Pairwise Log-Rank Test, survival, p vs PRIT-0175 30 + 30 μCi (LS174T tumors; [3]): 0.0090* | Pairwise Log-Rank Test, survival, p vs PRIT-0213 30 + 30 μCi (LS174T tumors; [3]): <0.0001* | Pairwise Log-Rank Test, survival, p vs PRIT-0213 30 μCi (LS174T tumors; [3]): <.0001* | Pairwise Log-Rank Test, survival, p vs PRIT-0214 30 + 30 μCi (LS174T tumors; [3]): <.0001* | Pairwise Log-Rank Test, survival, p vs PRIT-0214 30 μCi (LS174T tumors; [3]): 0.0091* | Pairwise Log-Rank Test, survival, p vs Vehicle (PBS) (LS174T tumors; [3]): 0.0034* | Pairwise Wilcoxon Test, survival, p vs PRIT-0175 30 + 30 μCi (LS174T tumors; [3]): 0.0417* | Pairwise Wilcoxon Test, survival, p vs PRIT-0213 30 + 30 μCi (LS174T tumors; [3]): 0.0002* | Pairwise Wilcoxon Test, survival, p vs PRIT-0213 30 μCi (LS174T tumors; [3]): 0.0002* | Pairwise Wilcoxon Test, survival, p vs PRIT-0214 30 + 30 μCi (LS174T tumors; [3]): 0.0002* | Pairwise Wilcoxon Test, survival, p vs PRIT-0214 30 μCi (LS174T tumors; [3]): 0.0160* | Pairwise Wilcoxon Test, survival, p vs Vehicle (PBS) (LS174T tumors; [3]): 0.0111* | tumor growth inhibition (TGI) (BxPC3 tumors [2]; day 47, 30+30 μCi, compared with PBS): 15.8% | Pairwise Log-Rank Test, survival, p vs PRIT-0175 30 + 30 μCi (BxPC3 tumors [2]; [3]): 0.0032* | Pairwise Log-Rank Test, survival, p vs PRIT-0213 30 + 10 μCi (BxPC3 tumors [2]; [3]): 0.0001* | Pairwise Log-Rank Test, survival, p vs PRIT-0213 30 + 30 μCi (BxPC3 tumors [2]; [3]): 0.8474 | Pairwise Log-Rank Test, survival, p vs PRIT-0214 30 + 10 μCi (BxPC3 tumors [2]; [3]): <.0001* | Pairwise Log-Rank Test, survival, p vs PRIT-0214 30 + 30 μCi (BxPC3 tumors [2]; [3]): 0.0685 | Pairwise Log-Rank Test, survival, p vs Vehicle (PBS) (BxPC3 tumors [2]; [3]): 0.5271 | Pairwise Wilcoxon Test, survival, p vs PRIT-0175 30 + 30 μCi (BxPC3 tumors [2]; [3]): 0.0042* | Pairwise Wilcoxon Test, survival, p vs PRIT-0213 30 + 10 μCi (BxPC3 tumors [2]; [3]): 0.0004* | Pairwise Wilcoxon Test, survival, p vs PRIT-0213 30 + 30 μCi (BxPC3 tumors [2]; [3]): 0.8704 | Pairwise Wilcoxon Test, survival, p vs PRIT-0214 30 + 10 μCi (BxPC3 tumors [2]; [3]): 0.0002* | Pairwise Wilcoxon Test, survival, p vs PRIT-0214 30 + 30 μCi (BxPC3 tumors [2]; [3]): 0.0827 | Pairwise Wilcoxon Test, survival, p vs Vehicle (PBS) (BxPC3 tumors [2]; [3]): 0.1439
